Experiment [1] relates to BRAF mutant human cell line xenograft HT29. In words: BRAF mutant human cell line xenograft HT29 in mice. The experiment is classed as in vivo. The conditions noted are these: clinically relevant doses. For orientation: In xenograft studies the graft and the host belong to different species.
The subject of experiment [2] is six BRAFV600E CRC cell lines. In words: growth inhibition (CellTiter-Glo, 7 days) in six BRAF-mutant CRC cell lines. The experiment is classed as cell-based. The conditions noted are these: seven treatment days; dabrafenib 30 nM, Compound A 300 nM, compound B 1.1 μM. How it is done:
Compound A: selective ATP-competitive ERK1 and ERK2 kinase inhibitor. Compound B: selective allosteric inhibitor of SHP2. The compounds were dissolved in 100% DMSO and stored at -20° C. as 10 mM stock solutions.
In this study, we used six BRAF-mutant colorectal cancer cell lines. We acquired all the cell lines from ATCC and cultured them at 37° C. 5% CO2 in the recommended media conditions: Colo205, LIM2405, SNUC5 and SW1417: RPMI 1640 (Amimed, #1-41F01-I) supplemented with 1% L-glutamine, 10 mM HEPES (Amimed, #5-31F00-H), 1% Na-pyruvate (Amimed, #5-60F00-H), 10% FCS. MDST8: DMEM high glucose (Amimed, #1-26F01-I) supplemented with 1% L-glutamine, 10% FCS. RKO: EMEM (Amimed, #1-31S01-1) supplemented with 1% L-glutamine, 10% FCS. […]
Seven days after treatment initiation, cell growth was determined using CellTiter-Glo® (Promega, #G7573), which measures the amount of ATP in the well. […] Cell lysis was induced for two minutes on an orbital shaker, the plates were incubated at room temperature for ten minutes, and luminescence was recorded.
To summarize the data of this study clearly, the percentage of growth inhibition versus DMSO (% GI) at single compound concentrations were reported. […] Raw data values were normalized to day 0, the time of treatment initiation, so that the % GI could be calculated. […]
(In general: In ATP-based viability assays light output follows the ATP content of the culture.)

Each structure is given as a SMILES string.

As to `CC(=O)Nc1cccc(-n2c(=O)n(C3CC3)c(=O)c3c(Nc4ccc(I)cc4F)n(C)c(=O)c(C)c32)c1` [Trametinib], in experiment [1], the “anti-tumor response, T/C” value amounted to 48 % T/C.

Take `CC(C)(C)c1nc(-c2cccc(NS(=O)(=O)c3c(F)cccc3F)c2F)c(-c2ccnc(N)n2)s1` [Dabrafenib, N-(3-(5-(2-aminopyrimidin-4-yl)-2-(tert-butyl)thiazol-4-yl)-2-fluorophenyl)-2,6-difluorobenzenesulfonamide]: the “anti-tumor response, T/C” value in experiment [1] turned out to be 59 % T/C.

Turning to `CNC[C@@H](NC(=O)c1ccc(-c2nc([C@H]3CC[C@H](O)[C@@H](F)C3)cnc2N)cc1F)c1cc(F)cc(Br)c1` [Compound A, 4-(3-amino-6-((1S,3 S,4S)-3-fluoro-4-hydroxycyclohexyl)pyrazin-2-yl)-N-((S)-1-(3-bromo-5-fluorophenyl)-2-(methylamino)ethyl)-2-fluorobenzamide], in experiment [1], the “anti-tumor response, T/C” value was determined as 54 % T/C.

Regarding `C[C@@H]1OCC2(CCN(c3cnc(Sc4ccnc(N)c4Cl)c(N)n3)CC2)[C@@H]1N` [Compound B, (3S,4S)-8-(6-amino-5-((2-amino-3-chloropyridin-4-yl)thio)pyrazin-2-yl)-3-methyl-2-oxa-8-azaspiro[4.5]decan-4-amine], in experiment [2], the “cell growth inhibition (% GI vs DMSO)” value was “no effect”.

The record behind these values is patent US20230090389A1 (Novartis AG, priority 2020, published 2023).
